11 molecules from ChEMBL document CHEMBL5154795, “Exploring the structure-activity relationships of diphenylurea as an antibacterial scaffold active against methicillin- and vancomycin-resistant Staphylococcus aureus” (Eur J Med Chem, 2022) can be followed below.

As a reminder, the MIC is the smallest concentration in the dilution series that meets the test's criterion for growth inhibition.

For data set [1], the system named is Staphylococcus aureus. In words: Antibacterial activity against Vancomycin-resistant Staphylococcus aureus 9 incubated for 18 to 20 hrs by broth microdilution method. The settings on record: time 18-20 hrs. Type of data set: functional.
Data set [2] can be described thus: Cytotoxicity against human Caco-2 cells assessed as cell viability at upto 128 ug/ml incubated for 24 hrs by MTS assay relative to control. Type of data set: toxicity, cell-based. The settings on record: up to 128 µg/mL, read-out: Activity.
Data set [3] relates to Staphylococcus aureus. In words: Antibacterial activity against methicillin-sensitive Staphylococcus aureus ATCC 6538 incubated for 18 to 20 hrs by broth microdilution method. The class given is functional. The settings on record: time 18-20 hrs. Background: In broth dilution the organism is exposed to a series of concentrations in liquid medium.
The subject of data set [4] is Staphylococcus aureus. In words: Antibacterial activity against methicillin-resistant Staphylococcus aureus NRS 119 incubated for 18 to 20 hrs by broth microdilution method. Type of data set: functional. The settings on record: time 18-20 hrs.
A short description of data set [5]: Cytotoxicity against human HaCaT cells assessed as cell viability at 64 ug/ml incubated for 24 hrs by MTS assay relative to control. The settings on record: at 64 µg/mL, read-out: Activity. Type of data set: toxicity, cell-based. (In general: Tetrazolium assays rely on reduction of a dye to a coloured formazan, in cell work by metabolically active cells.)
Data set [6] deals with Staphylococcus epidermidis. Nature of the data set: Antibacterial activity against Staphylococcus epidermidis NRS 101 incubated for 18 to 20 hrs by broth microdilution method. Type of data set: functional. The settings on record: time 18-20 hrs.
In data set [7] the test system is Staphylococcus aureus. Nature of the data set: Antibacterial activity against methicillin-resistant Staphylococcus aureus NRS 123 (USA400) incubated for 18 to 20 hrs by broth microdilution method. The class given is functional. The settings on record: time 18-20 hrs.
Data set [8] concerns Staphylococcus aureus. Nature of the data set: Antibacterial activity against methicillin-resistant Staphylococcus aureus USA400 NRS 123 assessed as time of post-antibiotic effect at 5 times MIC incubated for 2 hrs followed by compound washout and measured every single 1 hr. The class given is functional.
The test system of data set [9] is Staphylococcus aureus. In words: Antibacterial activity against methicillin-resistant Staphylococcus aureus NRS 384 (USA300) incubated for 18 to 20 hrs by broth microdilution method. The class given is functional. The settings on record: time 18-20 hrs.
The subject of data set [10] is Staphylococcus aureus. In words: Antibacterial activity against Vancomycin-resistant Staphylococcus aureus 12 incubated for 18 to 20 hrs by broth microdilution method. The class given is functional. The settings on record: time 18-20 hrs.
Data set [11] concerns Staphylococcus aureus. Nature of the data set: Antibacterial activity against Vancomycin-resistant Staphylococcus aureus 10 incubated for 18 to 20 hrs by broth microdilution method. Type of data set: functional. The settings on record: time 18-20 hrs.
Data set [12] concerns Staphylococcus aureus. Nature of the data set: Antibacterial activity against methicillin-resistant Staphylococcus aureus NRS 385 (USA500) incubated for 18 to 20 hrs by broth microdilution method. The settings on record: time 18-20 hrs. The class given is functional.
Data set [13] relates to Staphylococcus aureus. Nature of the data set: Antibacterial activity against methicillin-resistant Staphylococcus aureus NRS 386 (USA700) incubated for 18 to 20 hrs by broth microdilution method. Type of data set: functional. The settings on record: time 18-20 hrs.
The subject of data set [14] is Staphylococcus aureus. Nature of the data set: Antibacterial activity against methicillin-sensitive Staphylococcus aureus NRS 107 incubated for 18 to 20 hrs by broth microdilution method. Type of data set: functional. The settings on record: time 18-20 hrs.
The subject of data set [15] is Staphylococcus aureus. Nature of the data set: Antibacterial activity against methicillin-resistant Staphylococcus aureus USA300 incubated for 18 to 20 hrs by broth microdilution method. Type of data set: functional. The settings on record: time 18-20 hrs.
The test system of data set [16] is Staphylococcus aureus. In words: Induction of drug resistance in methicillin-resistant Staphylococcus aureus USA400 NRS 123 assessed as fold increase in MIC measured after 15 passages by broth microdilution assay. Type of data set: functional.
Data set [17] deals with Caco-2. In words: Cytotoxicity against human Caco-2 cells assessed as reduction in cell viability at 64 ug/ml incubated for 24 hrs by MTS assay. Type of data set: toxicity, cell-based. The settings on record: caco-2, 24 h, dose 64 µg/ml.
Data set [18] deals with Caco-2. In words: Cytotoxicity against human Caco-2 cells at 128 ug/ml incubated for 24 hrs by MTS assay. The class given is toxicity, cell-based. The settings on record: caco-2, 24 h, dose 128 µg/ml.
Data set [19] in a line: Cytotoxicity against human HaCaT cells assessed as cell viability upto 128 ug/ml incubated for 24 hrs by MTS assay relative to control. Type of data set: toxicity, cell-based. The settings on record: up to 128 µg/mL, read-out: Activity.
Data set [20] relates to Staphylococcus aureus. In words: Antibacterial activity against methicillin-resistant Staphylococcus aureus USA300 infected in BALB/c mouse assessed as recovery of body weight loss administered 72 hrs post infection topically twice daily for 4 days. The class given is functional, organism-based. The settings on record: time 4.0 day.
The test system of data set [21] is Staphylococcus aureus. In words: Potentiation of vancomycin-induced antibacterial activity against vancomycin-resistant Staphylococcus aureus 3b assessed as vancomycin MIC at 0.5 times MIC incubated for 18 to 20 hrs by broth microdilution method. Type of data set: functional. The settings on record: time 18-20 hrs.
Data set [22] deals with Staphylococcus aureus. In words: Potentiation of vancomycin-induced antibacterial activity against vancomycin-resistant Staphylococcus aureus 12 assessed as vancomycin MIC at 0.5 times MIC incubated for 18 to 20 hrs by broth microdilution method. The settings on record: time 18-20 hrs. Type of data set: functional.
Data set [23] has as its system Staphylococcus aureus. Nature of the data set: Potentiation of vancomycin-induced antibacterial activity against vancomycin-resistant Staphylococcus aureus 2 assessed as vancomycin MIC at 0.5 times MIC incubated for 18 to 20 hrs by broth microdilution method. The class given is functional. The settings on record: time 18-20 hrs.
Data set [24] concerns Staphylococcus aureus. In words: Potentiation of vancomycin-induced antibacterial activity against vancomycin-resistant Staphylococcus aureus 3 assessed as vancomycin MIC at 0.5 times MIC incubated for 18 to 20 hrs by broth microdilution method. The class given is functional. The settings on record: time 18-20 hrs.
Data set [25] has as its system Staphylococcus aureus. Nature of the data set: Potentiation of vancomycin-induced antibacterial activity against vancomycin-resistant Staphylococcus aureus 13 assessed as vancomycin MIC at 0.5 times MIC incubated for 18 to 20 hrs by broth microdilution method. The settings on record: time 18-20 hrs. The class given is functional.
The subject of data set [26] is Staphylococcus aureus. In words: Potentiation of vancomycin-induced antibacterial activity against vancomycin-resistant Staphylococcus aureus 10 assessed as vancomycin MIC at 0.5 times MIC incubated for 18 to 20 hrs by broth microdilution method. The class given is functional. The settings on record: time 18-20 hrs.
Data set [27] concerns Staphylococcus aureus. In words: Potentiation of vancomycin-induced antibacterial activity against vancomycin-resistant Staphylococcus aureus 9 assessed as vancomycin MIC at 0.5 times MIC incubated for 18 to 20 hrs by broth microdilution method. Type of data set: functional. The settings on record: time 18-20 hrs.
Data set [28] is described as follows: Hemolytic activity in rabbit erythrocytes at 32 ug/ml incubated for 30 min by absorbance based analysis relative to control. Type of data set: toxicity, cell-based, Oryctolagus cuniculus, Erythrocyte. The settings on record: at 32 µg/mL, read-out: Activity.
In data set [29] the test system is Staphylococcus aureus. Nature of the data set: Potentiation of vancomycin-induced antibacterial activity against vancomycin-resistant Staphylococcus aureus 1 assessed as vancomycin MIC at 0.5 times MIC incubated for 18 to 20 hrs by broth microdilution method. The class given is functional. The settings on record: time 18-20 hrs.

≈ marks a conversion by molar mass, not a printed value. Calls of active or inactive are those of the source.

As to `C/C(=N\NC(=N)N)c1ccc(NC(=O)Nc2ccc(/C=C/C3CCCCC3)cc2)cc1`, the MIC in data set [1] is 8 µg/mL (≈ 19.1 µM); in [3], 4 µg/mL (≈ 9.56 µM); in data set [4], 4 µg/mL (≈ 9.56 µM); in [6], 8 µg/mL (≈ 19.1 µM); in data set [7], 4 µg/mL (≈ 9.56 µM); in data set [9], 2 µg/mL (≈ 4.78 µM). Besides, the MIC is 8 µg/mL (≈ 19.1 µM) in [10]; 8 µg/mL (≈ 19.1 µM) in data set [11]; 8 µg/mL (≈ 19.1 µM) in data set [12]; 8 µg/mL (≈ 19.1 µM) in data set [13]; 4 µg/mL (≈ 9.56 µM) in [14]. In addition, in data set [2], the viability at 24 h was found to be 100%. Besides, the viability at 24 h, 64 ug/ml in [5] came to 100%. For the same molecule, in data set [8], the Time is 6 h.
In turn, `C/C(=N\NC(=N)N)c1ccc(NC(=O)Nc2ccc(-c3cccn3C)cc2)cc1` showed an MIC in data set [15] of 4 µg/mL (≈ 10.3 µM).
The same measure, in the same setting: then `C/C(=N\NC(=N)N)c1ccc(NC(=O)Nc2ccc(-c3ccc4ccccc4c3)cc2)cc1`, with 4 µg/mL (≈ 9.16 µM).
Regarding `C/C(=N\NC(=N)N)c1ccc(NC(=O)Nc2ccc(/C=C/c3ccccc3)cc2)cc1`, the MIC in data set [1] turned out to be 16 µg/mL (≈ 38.8 µM); in data set [3], 16 µg/mL (≈ 38.8 µM); in data set [4], 16 µg/mL (≈ 38.8 µM); in data set [6], 8 µg/mL (≈ 19.4 µM); in data set [7], 4 µg/mL (≈ 9.7 µM); in data set [9] it was 2 µg/mL (≈ 4.85 µM). In addition, the MIC came to 8 µg/mL (≈ 19.4 µM) in [10]; 8 µg/mL (≈ 19.4 µM) in data set [11]; 8 µg/mL (≈ 19.4 µM) in [12]; 4 µg/mL (≈ 9.7 µM) in [13]; 8 µg/mL (≈ 19.4 µM) in data set [14]. Besides, the fold change (FC) in data set [16] amounted to 1. In data set [5], the viability at 24 h, 64 ug/ml turned out to be 100%. In addition, the Activity result in [17] is given as “Non-Toxic”; in [18] it was “Toxic”. For the same molecule, the Time in data set [8] was 3 h.
As for `C/C(=N\NC(=N)N)c1ccc(NC(=O)Nc2ccc(C=C3CCC3)cc2)cc1`, in data set [15], 4 µg/mL (≈ 10.6 µM) was the least that counted as inhibitory (MIC).
The same measure, in the same setting: the result for `C/C(=N\NC(=N)N)c1ccc(NC(=O)Nc2ccc(-c3ccccn3)cc2)cc1` reads 4 µg/mL (≈ 10.3 µM); that for `C/C(=N\NC(=N)N)c1ccc(NC(=O)Nc2ccc(-c3cccc(C)c3)cc2)cc1`, 4 µg/mL (≈ 9.99 µM).
On to `C/C(=N\NC(=N)N)c1ccc(NC(=O)Nc2ccc(-c3cccs3)cc2)cc1`, for which the MIC in [1] stood at 8 µg/mL (≈ 20.4 µM); in data set [3], 4 µg/mL (≈ 10.2 µM); in data set [4], 16 µg/mL (≈ 40.8 µM); in data set [6], 8 µg/mL (≈ 20.4 µM); in data set [7] it was 4 µg/mL (≈ 10.2 µM); in [9], 4 µg/mL (≈ 10.2 µM). Moreover, the MIC in data set [10] is 8 µg/mL (≈ 20.4 µM); in data set [11], 16 µg/mL (≈ 40.8 µM); in data set [15] it was 4 µg/mL (≈ 10.2 µM); in [12], 8 µg/mL (≈ 20.4 µM); in data set [13], 4 µg/mL (≈ 10.2 µM); in data set [14], 2 µg/mL (≈ 5.1 µM). In addition, the viability at 24 h in [2] and in data set [19] was 100% in each case. Also, in data set [16], the fold change (FC) came to 1. Besides, in data set [8], the Time amounted to 3 h.
The molecule `C/C(=N\NC(=N)N)c1ccc(NC(=O)Nc2ccc(-c3ccccc3C)cc2)cc1` gave an MIC in [15] of 4 µg/mL (≈ 9.99 µM).
Take `C/C(=N\NC(=N)N)c1ccc(NC(=O)Nc2ccc(-c3ccco3)cc2)cc1`: the MIC was determined as 4 µg/mL (≈ 10.6 µM) in data set [1]; 2 µg/mL (≈ 5.31 µM) in data set [3]; 4 µg/mL (≈ 10.6 µM) in [4]; 2 µg/mL (≈ 5.31 µM) in [6]; 2 µg/mL (≈ 5.31 µM) in [7]; 8 µg/mL in [21]. Also, the MIC in [22] was 512 µg/mL; in [23], 8 µg/mL; in data set [24] it was 2 µg/mL; in data set [9], 4 µg/mL (≈ 10.6 µM); in [10], 4 µg/mL (≈ 10.6 µM); in data set [11], 4 µg/mL (≈ 10.6 µM). For the same molecule, the MIC in data set [25] stood at 512 µg/mL; in data set [15] it was 4 µg/mL (≈ 10.6 µM); in [26], 8 µg/mL; in [27], 128 µg/mL; in [29], 2 µg/mL; in data set [12] it was 8 µg/mL (≈ 21.3 µM). The MIC is 2 µg/mL (≈ 5.31 µM) in data set [13] and 8 µg/mL (≈ 21.3 µM) in [14]. In data set [2], the viability at 24 h was found to be 100%. Further, in [20], the result was Active. Further, the viability at 24 h, 64 ug/ml in data set [5] was determined as 100%. Also, in [8], the Time was 5 h. In addition, in [28], the hemolysis at 0.5 h, 32 ug/ml is below 2%.
With `C/C(=N\NC(=N)N)c1ccc(NC(=O)Nc2ccc(-c3ccsc3)cc2)cc1`, the MIC in data set [15] came out at 4 µg/mL (≈ 10.2 µM).
